What was measured:
AT-1 receptor = biological target: T1, AT-1 receptor (Homo sapiens, UniProt P30556); details: in vitro, IgG from pre-eclamptic patients; cited from earlier work
T1 construct: found prominent expression of the receptor on the cell surface; endogenous in cells; host or cells: human fetal brain-derived neural stem/progenitor cells (NSC/NPC), 7-8 weeks gestation
T1 sequence (P30556 1-359): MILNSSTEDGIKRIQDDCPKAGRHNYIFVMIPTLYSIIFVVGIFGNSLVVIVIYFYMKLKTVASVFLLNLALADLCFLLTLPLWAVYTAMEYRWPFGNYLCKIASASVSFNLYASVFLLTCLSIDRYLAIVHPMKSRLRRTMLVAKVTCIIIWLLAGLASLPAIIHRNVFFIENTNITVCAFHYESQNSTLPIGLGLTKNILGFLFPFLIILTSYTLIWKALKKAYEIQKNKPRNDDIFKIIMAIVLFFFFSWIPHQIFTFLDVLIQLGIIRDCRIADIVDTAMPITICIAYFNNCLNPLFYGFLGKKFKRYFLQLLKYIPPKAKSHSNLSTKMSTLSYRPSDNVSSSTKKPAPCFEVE

human NSC = experiment: NSC proliferation by BrdU incorporation; assay type: cell-based; details: preliminary in vitro study
Method: Cell Cultures. Reagents for cell culture were purchased from Invitrogen (Carlsbad, Calif.) if not otherwise specified. Human NPC were cultured as published previously ^24 in accordance with NIH guidelines and following approval by the Institutional Review Board at Johns Hopkins University and the National Institutes of Health. Briefly, human fetal brain specimens of 7-8 weeks gestation were obtained from Birth Defects Research Laboratory, University of Washington, Seattle. The tissues were then triturated into single cells after removing meninges and blood vessels. […] NSC cultures were ready for experiments 4-5 days after replating and >98% of the cells expressed the neural stem cell marker, nestin while <1% of the cells expressed glial fibrillary acidic protein (GFAP, a marker for astrocytes) or beta-III tubulin (a neuronal cell marker) as determined by immunocytochemistry.
Cell Proliferation and Differentiation Assays. Cell proliferation was assessed by BrdU incorporation. […]
MCAD-IgG Inhibits NSC Proliferation. […] The number of proliferating cells were determined by calculating the percentage of BrdU immunopositive cells. […] Cell toxicity was also evaluated using cellquanti-blue assay. […]

[1] = tested on: NSC treated with MCAD-IgG; experiment: Attenuation of MCAD-IgG effect on NSC differentiation (beta-III tubulin/GFAP immunostaining); assay type: cell-based, human
Method: Cell Proliferation and Differentiation Assays. Cell proliferation was assessed by BrdU incorporation. The cells were first treated with MCAD or control antibodies for 18 hours and then for 6 hours with BrdU (Sigma) followed by immunostaining for BrdU. When subjected to differentiation, media was replaced with DMEM/F12 containing 2% FBS. The NPC were capable of differentiating into neurons (40-60%) and astrocytes (20-50%) after 4-7 days. Immunocytochemistry. Cells were fixed in 4% (w/v) paraformaldehyde and permeabilized by incubation in 0.5% (v/v) Triton X-100 in PBS (PBS-T) for 20 min. For BrdU staining, the cells were also denatured in 2N HCl at 37° C. for 30 min and rinsed twice in 0.1 M sodium borate, pH 8.5. Cells were immunostained using monoclonal anti-BrdU (1:1000; Sigma-Aldrich), monoclonal anti-β-III-tubulin (1:1000; Promega), rabbit anti-GFAP (1:1000; Sigma-Aldrich), monoclonal anti-AT-1 (1:50; Abcam, Cambridge Mass.) or rabbit anti-active caspase-3 (1:1000; Sigma-Aldrich), followed by corresponding secondary antibodies (anti-rabbit Alexa Fluor 488, 1:400; anti-mouse Alexa Fluor […], 1:400; Invitrogen) and 4′,6-diamidino-2-phenylindole (DAPI) for nuclear staining. Images were acquired on a Zeiss LSM 510 META multiphoton confocal system (Carl Zeiss). […] Neurogenesis was determined after 4 days using immunostaining for beta-III tubulin and GFAP.

NSC = experiment: CellQuanti-Blue cytotoxicity assay; assay type: cell-based; details: higher concentrations, 10-100 uM
Method: Cytotoxicity Assays. Cytotoxicity was determined by using CellQuanti-Blue Cell Viability Assay kit (BioAssay Systems) as previously published^24. Briefly, NSCs were cultured in poly-D-lysine coated 96-well plates and used for experiments at ˜60% confluence. […] After 24 hours, CellQuanti-Blue solution (10 μl/well) was added and the cells were incubated for 1 hour. The fluorescence was quantified at an excitation wavelength of 530 nm and emission wavelength of 590 nm using a fluorescence plate reader.
MCAD-IgG Inhibits NSC Proliferation. The effect of MCAD on NSC proliferation was studied by exposing cultured human NSC to corresponding concentrations (1:500 to 1:50) of MCAD or MUC antibodies for 24 hours in the presence of BrdU for the last 6 hours. The number of proliferating cells were determined by calculating the percentage of BrdU immunopositive cells. […] Another group of NSC similarly treated with the MCAD or MUC antibodies were also immunostained for active-caspase-3 to determine if MCAD-IgG could induce apoptosis in these cells. […] Cell toxicity was also evaluated using cellquanti-blue assay. To exclude the effect of cell proliferation, NSC cultures were treated with MCAD- or MUC-IgG in growth factor-free media for 24 hours before the cellquanti-blue solution was added. […] Thus MCAD-IgG inhibited NSC proliferation without causing cell death.

## CCCCc1nc(Cl)c(CO)n1Cc1ccc(-c2ccccc2-c2nn[nH]n2)cc1 [losartan]
AT-1 receptor
  blockade of patient IgG-induced constriction of villus veins and arteries: could be blocked

## Fc1ccc([C@@H]2CCNC[C@H]2COc2ccc3c(c2)OCO3)cc1 [Paroxetine, paroxetine]
Human NSC
  proliferation of NSC: increased proliferation of NSC in a concentration-dependent manner
[1]; 20 nM-2 uM, 1 hour prior to MCAD-IgG (1:50), after 4 days
  effect on MCAD-IgG caused inhibition of neurogenesis and enhanced astroglial differentiation: reversed MCAD-IgG caused inhibition of neurogenesis and enhanced astroglial differentiation

## CCCc1nc2c(C)cc(-c3nc4ccccc4n3C)cc2n1Cc1ccc(-c2ccccc2C(=O)O)cc1 [Telmisartan]
NSC
  toxicity in cells, cellquanti-blue: caused toxicity in cells
[1]; 10 nM, pretreatment 30 min prior to IgG
  effect on MCAD-IgG caused changes in neuronal and astroglial differentiation: significantly attenuated MCAD-IgG caused effect on neuronal and astroglial differentiation

Reference: patent US10837969B2, “Therapeutic and diagnostic methods for autism spectrum disorders and other conditions” (THE JOHNS HOPKINS UNIVERSITY, priority 2012, dated 2020)
